{"source": "paper PMC9106929", "about": "(Circulation research, 2022)", "target": "Piezo1 (Mus musculus, UniProt E2JF22)", "sequence (E2JF22 whole entry)": "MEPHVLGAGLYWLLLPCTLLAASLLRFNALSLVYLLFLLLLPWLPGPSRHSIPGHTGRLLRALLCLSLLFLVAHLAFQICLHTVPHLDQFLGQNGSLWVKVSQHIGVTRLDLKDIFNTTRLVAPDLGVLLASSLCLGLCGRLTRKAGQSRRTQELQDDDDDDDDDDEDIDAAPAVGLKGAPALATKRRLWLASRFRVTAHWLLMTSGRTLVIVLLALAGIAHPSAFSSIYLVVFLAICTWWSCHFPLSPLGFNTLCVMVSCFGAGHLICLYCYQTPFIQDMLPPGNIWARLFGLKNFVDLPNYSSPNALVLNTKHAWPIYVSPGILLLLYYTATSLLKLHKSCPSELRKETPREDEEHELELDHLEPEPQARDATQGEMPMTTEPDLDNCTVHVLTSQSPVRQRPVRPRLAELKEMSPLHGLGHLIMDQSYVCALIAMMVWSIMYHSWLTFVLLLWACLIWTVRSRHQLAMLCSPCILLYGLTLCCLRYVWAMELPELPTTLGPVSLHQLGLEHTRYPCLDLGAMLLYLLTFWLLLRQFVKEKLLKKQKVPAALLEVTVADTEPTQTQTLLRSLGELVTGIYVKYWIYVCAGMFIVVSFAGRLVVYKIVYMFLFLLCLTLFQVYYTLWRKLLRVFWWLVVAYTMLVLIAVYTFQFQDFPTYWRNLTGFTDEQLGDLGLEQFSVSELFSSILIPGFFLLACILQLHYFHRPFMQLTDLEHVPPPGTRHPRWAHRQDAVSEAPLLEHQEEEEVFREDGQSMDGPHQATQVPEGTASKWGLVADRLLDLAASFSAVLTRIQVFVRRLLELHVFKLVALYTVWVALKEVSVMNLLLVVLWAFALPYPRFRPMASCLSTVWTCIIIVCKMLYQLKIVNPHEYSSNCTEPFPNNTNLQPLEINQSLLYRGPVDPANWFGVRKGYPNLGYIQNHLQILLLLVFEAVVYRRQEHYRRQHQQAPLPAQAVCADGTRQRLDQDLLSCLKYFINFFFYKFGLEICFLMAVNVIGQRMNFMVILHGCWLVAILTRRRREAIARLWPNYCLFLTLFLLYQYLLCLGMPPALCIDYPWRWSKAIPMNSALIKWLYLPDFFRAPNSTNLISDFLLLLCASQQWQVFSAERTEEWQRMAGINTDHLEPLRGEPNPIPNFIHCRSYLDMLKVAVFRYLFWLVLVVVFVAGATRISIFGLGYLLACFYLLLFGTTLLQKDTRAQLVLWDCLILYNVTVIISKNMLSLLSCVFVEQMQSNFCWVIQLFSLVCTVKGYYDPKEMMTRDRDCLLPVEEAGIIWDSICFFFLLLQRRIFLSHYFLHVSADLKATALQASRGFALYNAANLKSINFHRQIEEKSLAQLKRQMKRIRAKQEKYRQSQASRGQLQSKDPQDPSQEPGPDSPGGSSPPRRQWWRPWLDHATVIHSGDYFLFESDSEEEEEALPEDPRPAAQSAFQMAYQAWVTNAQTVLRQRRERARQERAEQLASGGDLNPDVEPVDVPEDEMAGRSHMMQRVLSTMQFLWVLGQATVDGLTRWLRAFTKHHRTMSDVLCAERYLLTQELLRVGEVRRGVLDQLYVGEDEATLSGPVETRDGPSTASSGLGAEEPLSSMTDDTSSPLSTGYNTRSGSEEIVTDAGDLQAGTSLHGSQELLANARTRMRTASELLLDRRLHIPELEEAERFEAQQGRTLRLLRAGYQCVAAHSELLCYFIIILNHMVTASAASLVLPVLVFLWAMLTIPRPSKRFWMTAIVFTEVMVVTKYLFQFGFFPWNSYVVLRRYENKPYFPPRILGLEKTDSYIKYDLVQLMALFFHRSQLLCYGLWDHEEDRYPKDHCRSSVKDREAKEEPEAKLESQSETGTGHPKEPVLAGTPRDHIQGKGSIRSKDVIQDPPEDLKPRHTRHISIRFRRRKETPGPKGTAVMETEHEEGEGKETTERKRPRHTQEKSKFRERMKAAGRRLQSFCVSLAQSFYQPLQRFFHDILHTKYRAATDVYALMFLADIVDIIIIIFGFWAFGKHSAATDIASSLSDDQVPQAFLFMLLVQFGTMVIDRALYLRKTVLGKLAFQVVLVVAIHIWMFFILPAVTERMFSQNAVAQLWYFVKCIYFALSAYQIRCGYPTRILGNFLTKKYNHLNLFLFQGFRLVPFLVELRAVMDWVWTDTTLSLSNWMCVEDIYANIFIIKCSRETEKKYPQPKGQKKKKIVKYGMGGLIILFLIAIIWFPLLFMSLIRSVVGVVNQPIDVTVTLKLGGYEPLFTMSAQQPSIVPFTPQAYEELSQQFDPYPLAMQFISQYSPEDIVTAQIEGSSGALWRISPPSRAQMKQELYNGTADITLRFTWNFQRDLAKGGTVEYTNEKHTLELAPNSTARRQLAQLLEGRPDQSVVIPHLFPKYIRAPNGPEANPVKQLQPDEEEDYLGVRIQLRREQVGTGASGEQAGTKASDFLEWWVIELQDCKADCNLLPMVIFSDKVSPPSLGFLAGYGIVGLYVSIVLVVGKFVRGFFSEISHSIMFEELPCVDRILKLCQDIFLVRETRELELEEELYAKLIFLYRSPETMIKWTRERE", "experiment": "cell-attached single-channel patch clamp, open probability", "format": "cell-based", "details": "activator, 5 μM in pipette, -50 mV; effect absent in Piezo1-EC-KO cECs"}
{"smiles": "Clc1cccc(Cl)c1CSc1nnc(-c2cnccn2)s1", "note": "[Yoda1]", "values": [{"measurement": "cell-attached single-channel patch clamp, open probability", "value": "increased the open probability of Piezo1-like currents in Piezo1-EC-Ctrl cECs but not in Piezo1-EC-KO"}]}
